Patent publication US12612358B2, “Resorcinol-based compounds and uses thereof” (priority 2020, dated 2026)

Assays:
mouse 4T1 TNBC = assay: Cell proliferation, 4T1 TNBC cells; format: cell-based; settings: mouse 4T1 TNBC cells; read-out: IC50 group for inhibition of cell proliferation
SW1990 = assay: CellTiter-Glo cell proliferation, SW1990 pancreatic cancer cells; format: cell-based; settings: Homo sapiens, read-out: IC50 category
Excerpt: Cell culture and treatment of pancreatic cancer cell lines: Pancreatic cancer cells lines BxPC-3, SW1990, and PANC-1 used in the experiments presented herein can be obtained from ATCC. The cells can be cultured and passaged in complete growth medium (RPMI-1640, Dulbecco's Modified Eagle Medium, or Leibovitz's L-15 medium) that has been supplemented with fetal bovine serum to a final concentration of 10%.
Effects of Compound-5B on proliferation and Id-1 expression in pancreatic cell lines. Compound-5B was next tested for inhibition of cell viability/proliferation in the three pancreatic cancer cell lines and two primary patient-derived cancer cell lines. Compound-5B inhibited cell viability/proliferation of all the cancer cell lines (Table 2). The culturing condition for the pancreatic cell lines was similar to those used in the breast cancer lines, with the exception of the primary patient-derived pancreatic cancer cell lines (PANC9 and PANC13). […] Cell proliferation of pancreatic cells in the presence of drug was measured using the CellTiter-Glo luminescent Assay and IC50 values were calculated (Table 2). […]

PANC9 = assay: CellTiter-Glo cell proliferation, patient-derived PANC9 tumorspheres; format: cell-based; settings: Homo sapiens, 72 h, three days treatment, read-out: IC50 category
Excerpt: Effects of Compound-5B on proliferation and Id-1 expression in pancreatic cell lines. Compound-5B was next tested for inhibition of cell viability/proliferation in the three pancreatic cancer cell lines and two primary patient-derived cancer cell lines. Compound-5B inhibited cell viability/proliferation of all the cancer cell lines (Table 2). The culturing condition for the pancreatic cell lines was similar to those used in the breast cancer lines, with the exception of the primary patient-derived pancreatic cancer cell lines (PANC9 and PANC13). For determining inhibition of cell proliferation in patient-derived pancreatic cancer cells were cultured in a T75 ultra low attachment flasks with DMEM/F12 media supplemented with B27, penicillin/streptomycin (10,000 u/mL), 50 µg/mL human epidermal growth factor (hEGF), 50 μg/mL human fibroblast growth factor, and 5 μg/mL heparin. Cells were plated in a 384-well plate and incubated for three days to promote the formation of tumorspheres. Cells were then treated with Compound-5B for three days. Cell proliferation of pancreatic cells in the presence of drug was measured using the CellTiter-Glo luminescent Assay and IC50 values were calculated (Table 2). The IC50 and corresponding 95% confidence limits (CL) were calculated using non-linear regression analysis.

U251 (glioblastoma) = assay: Cell proliferation, U251 glioblastoma cells; format: cell-based; settings: Homo sapiens, U-251, read-out: IC50 category
Excerpt: (§1) Effects of Compound-5B on cell proliferation in additional cancer cells: To determine whether Compound-5B would have broad based anticancer activity, we study whether Compound-5B would be effective at inhibiting cell proliferation in a variety of cancers overexpressing Id-1. The assay conditions used were identical to those presented for breast and pancreatic cancers. Indeed, Compound-5B was potent at inhibiting cell proliferation in blood cancer (leukemia), glioblastoma, prostate, and ovarian cancer.

DU145 (prostate) = assay: Cell proliferation, DU145 prostate cancer cells; format: cell-based; settings: Homo sapiens, DU-145, read-out: IC50 category
Excerpt: as §1

Id-1 = Id-1 protein expression in 4T1 breast cancer cells; format: cell-based; settings: mouse 4T1 breast cancer cells
Method: Quantitative Western analysis: Cells are cultured and treated in 6-well dishes. After the cells are washed twice with cold PBS, lysis buffer is added. The cells are then lysed by freezing for 10 min at −70° C. and then thawing at ambient temperature. The cell lysate is collected and the protein content is determined by using Bradford reagent. Equal amounts of protein are heated at 90° C. in Laemmli sample buffer which also included β-mercaptoethanol. The samples are then loaded onto a precast SDS-PAGE gel (Bio-Rad Laboratories, Hercules, CA). After which, proteins are then electroblotted onto an Immobilon membrane (Millipore, Billerica, MA) overnight at 2-4° C. […]
Antitumor activity of Compound-5B in vivo in breast cancer. […] We also determined whether it produced a similar effect in mouse 4T1 breast cancer cells. […] Lung metastasis % (total metastatic foci in treated/vehicle×100) was evaluated (FIG. 4B). […] Animals with established tumors (average volume of 100 mm^3) were randomized and treated once daily, 6 days a week, with i.p., injections of vehicle, or 1 mg/kg Compound-5B, tumors were measured once weekly by an operator blinded to the treatment groups. Changes in tumor volume (mm^3) were calculated as (length×width2)/2. *indicates statistically significant differences between vehicle and Compound-5B (p<0.05, Two-way ANOVA repeated measures, and Tukey's multiple comparisons test).

4T1 cells = assay: 4T1 lung metastasis model in BALB/c mice; format: in vivo, mouse; settings: 4T1 tail vein, i.p. once a day, six days a week, three weeks
Method: Antitumor activity of Compound-5B in vivo in breast cancer. Based on the activity of Compound-5B in culture, the antitumor activity of Compound-5B was tested in vivo in two models of breast cancer (FIG. 4). Compound-5B produced a potent inhibition of Id-1 expression in human MDA-MB231 cells (FIG. 1A). We also determined whether it produced a similar effect in mouse 4T1 breast cancer cells. This cell line is commonly used for seeding a lung metastatic model in mice. […] LC=loading control (FIG. 4A). […] Lung metastases were generated in BALB/c mice by tail vein injection of 4×10^4 4T1 cells. Two days after the injection, the tumor bearing mice were injected i.p. once a day, six days a week, with vehicle or Compound 5B three weeks. Lung metastasis % (total metastatic foci in treated/vehicle×100) was evaluated (FIG. 4B). […] Animals with established tumors (average volume of 100 mm^3) were randomized and treated once daily, 6 days a week, with i.p., injections of vehicle, or 1 mg/kg Compound-5B, tumors were measured once weekly by an operator blinded to the treatment groups. Changes in tumor volume (mm^3) were calculated as (length×width2)/2. *indicates statistically significant differences between vehicle and Compound-5B (p<0.05, Two-way ANOVA repeated measures, and Tukey's multiple comparisons test).

[1] = Aqueous solubility (Eurofins ADME); format: physicochemical
Method: (§2) Evaluating ADME of Compound-5B in vitro. It is important to evaluate ADME first in culture as it allows for the selection of the best candidate for PK analysis in vivo. ADME analysis of Compound-5B was performed by Eurofins.

hERG = biological target: T1, hERG (Homo sapiens, UniProt Q12809); assay: hERG channel inhibition; format: biochemical
T1 construct: purchased Eurofins
T1 sequence (Q12809 whole entry): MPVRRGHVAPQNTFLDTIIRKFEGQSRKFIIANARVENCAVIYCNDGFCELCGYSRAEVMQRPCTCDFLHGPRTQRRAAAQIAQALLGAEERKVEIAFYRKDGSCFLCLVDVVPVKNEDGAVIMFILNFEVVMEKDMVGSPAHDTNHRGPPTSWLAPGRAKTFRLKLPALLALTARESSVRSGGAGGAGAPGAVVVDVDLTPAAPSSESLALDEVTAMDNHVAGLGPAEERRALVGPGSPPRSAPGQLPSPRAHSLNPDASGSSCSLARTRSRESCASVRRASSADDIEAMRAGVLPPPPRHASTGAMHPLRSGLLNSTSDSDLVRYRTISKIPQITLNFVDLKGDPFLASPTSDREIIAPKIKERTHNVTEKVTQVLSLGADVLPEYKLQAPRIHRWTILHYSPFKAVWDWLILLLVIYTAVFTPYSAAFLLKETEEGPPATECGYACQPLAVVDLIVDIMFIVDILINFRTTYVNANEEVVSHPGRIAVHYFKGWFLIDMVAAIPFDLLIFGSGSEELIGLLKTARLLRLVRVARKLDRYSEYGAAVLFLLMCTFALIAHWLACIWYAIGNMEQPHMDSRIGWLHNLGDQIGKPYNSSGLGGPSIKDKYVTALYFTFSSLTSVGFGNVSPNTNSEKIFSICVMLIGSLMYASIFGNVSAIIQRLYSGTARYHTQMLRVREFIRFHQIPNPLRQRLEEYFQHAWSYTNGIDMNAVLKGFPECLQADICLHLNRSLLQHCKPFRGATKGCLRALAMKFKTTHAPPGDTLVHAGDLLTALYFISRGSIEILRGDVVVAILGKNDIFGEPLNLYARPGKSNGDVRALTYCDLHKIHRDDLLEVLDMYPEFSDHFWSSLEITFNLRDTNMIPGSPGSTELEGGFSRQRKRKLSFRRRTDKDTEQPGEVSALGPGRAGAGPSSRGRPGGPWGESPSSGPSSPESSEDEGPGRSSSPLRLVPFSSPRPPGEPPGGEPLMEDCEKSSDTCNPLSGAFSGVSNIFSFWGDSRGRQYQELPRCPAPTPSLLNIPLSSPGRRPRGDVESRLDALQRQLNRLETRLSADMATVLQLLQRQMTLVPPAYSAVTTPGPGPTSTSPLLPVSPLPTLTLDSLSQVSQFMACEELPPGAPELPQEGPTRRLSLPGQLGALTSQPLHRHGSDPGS
Method: as §2

CYP2C9 = biological target: T2, CYP2C9 (Homo sapiens, UniProt P11712); assay: CYP2C9 inhibition; format: in vitro ADME; settings: 10 μM
T2 construct: purchased Eurofins
T2 sequence (P11712 whole entry): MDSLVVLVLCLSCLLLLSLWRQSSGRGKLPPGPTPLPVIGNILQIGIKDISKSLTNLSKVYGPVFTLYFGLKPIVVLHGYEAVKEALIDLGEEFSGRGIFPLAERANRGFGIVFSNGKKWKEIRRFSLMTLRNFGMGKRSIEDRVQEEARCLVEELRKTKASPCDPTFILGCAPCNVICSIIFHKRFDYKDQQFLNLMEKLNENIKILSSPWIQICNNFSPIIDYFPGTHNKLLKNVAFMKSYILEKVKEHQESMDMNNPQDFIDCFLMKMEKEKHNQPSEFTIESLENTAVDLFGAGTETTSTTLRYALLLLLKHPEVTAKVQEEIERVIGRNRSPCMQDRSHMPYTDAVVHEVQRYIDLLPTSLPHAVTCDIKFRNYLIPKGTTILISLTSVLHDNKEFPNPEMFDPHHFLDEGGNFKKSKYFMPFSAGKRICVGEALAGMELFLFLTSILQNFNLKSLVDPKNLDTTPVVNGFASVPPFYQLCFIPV
Method: as §2

IV pharmacokinetics = format: in vivo; settings: 1 mpk
[2] = biological target: T3, ADRB2 (β-Adrenergic receptor) (Homo sapiens, UniProt P07550); assay: SAFETY scan E/IC50 ELECT, ADRB2; format: biochemical; settings: read-out: inhibition against ADRB2 (mild)
T3 construct: purchased Eurofin's
T3 sequence (P07550 whole entry): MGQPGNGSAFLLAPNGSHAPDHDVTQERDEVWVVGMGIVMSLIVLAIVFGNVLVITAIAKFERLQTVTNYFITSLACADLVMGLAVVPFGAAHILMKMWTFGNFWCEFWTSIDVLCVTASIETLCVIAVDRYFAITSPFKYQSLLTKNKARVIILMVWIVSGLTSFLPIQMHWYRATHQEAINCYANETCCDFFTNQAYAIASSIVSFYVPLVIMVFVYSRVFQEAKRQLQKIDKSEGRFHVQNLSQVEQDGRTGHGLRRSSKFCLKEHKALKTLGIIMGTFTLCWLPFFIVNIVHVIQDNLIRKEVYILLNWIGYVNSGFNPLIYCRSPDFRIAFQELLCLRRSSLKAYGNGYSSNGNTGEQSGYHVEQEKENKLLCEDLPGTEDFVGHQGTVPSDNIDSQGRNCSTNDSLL

[3] = biological target: T4, DRD1 (Dopamine receptor D1) (Homo sapiens, UniProt P21728); assay: SAFETY scan E/IC50 ELECT, DRD1; format: biochemical; settings: read-out: inhibition against DRD1 (mild)
T4 construct: purchased Eurofin's
T4 sequence (P21728 whole entry): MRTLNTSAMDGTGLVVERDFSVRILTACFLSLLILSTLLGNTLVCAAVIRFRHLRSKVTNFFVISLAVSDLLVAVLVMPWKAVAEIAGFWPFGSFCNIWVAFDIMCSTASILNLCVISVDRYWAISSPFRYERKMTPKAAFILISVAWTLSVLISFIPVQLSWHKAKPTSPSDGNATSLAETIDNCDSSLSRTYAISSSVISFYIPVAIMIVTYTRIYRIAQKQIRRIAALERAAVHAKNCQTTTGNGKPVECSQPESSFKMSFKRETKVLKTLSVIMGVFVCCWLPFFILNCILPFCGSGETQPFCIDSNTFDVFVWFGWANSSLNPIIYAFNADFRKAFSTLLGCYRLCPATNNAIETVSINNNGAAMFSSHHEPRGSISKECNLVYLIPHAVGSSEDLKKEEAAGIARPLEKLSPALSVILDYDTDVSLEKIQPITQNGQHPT

Work on CCCCCCC(C)(C)c1cc(O)c(C(=O)Nc2ccccc2)c(O)c1 [Compound 5B, 2,6-dihydroxy-4-(2-methyloctan-2-yl)-N-phenylbenzamide] yielded an IC50 (mouse 4T1 TNBC) of 500 to 1000 nM, an IC50 (SW1990) of under 500 nM and an IC50 (PANC9) of under 500 nM. For the same compound, the IC50 (U251 (glioblastoma)) was under 500 nM, the IC50 (DU145 (prostate)) was under 500 nM and the Id-1 protein expression (Id-1) was “downregulation of Id-1 protein expression”. For the same compound, the lung metastasis (4T1 cells) was “inhibits breast cancer metastasis”, the aqueous solubility [1] was “low” and the “inhibition of cardiac channel hERG” value (hERG) was “no inhibition”. The “inhibition of CYP2C9” value (CYP2C9) was “some inhibition”, the clearance (IV pharmacokinetics) was “low” and the exposure (IV pharmacokinetics) was “good”. The half-life (IV pharmacokinetics) was “acceptable”, the IC50 [2] was 640 to 750 nM and the IC50 [3] was 640 to 750 nM.
